This is an account of results in US20100075343A1, “NOVEL PEPTIDES” (priority 2007, published 2010).

The test system of assay [1] is hypothalamic cells of the apoaequorin-expressing mice. Kind of assay: Intracellular calcium ion increase (aequorin luminescence), hypothalamus. Format: cell-based, mouse. Conditions: for increase of intracellular calcium concentration in hypothalamic cells (RLU per second): 1 μmol/L peptide, added at 25 seconds; for luminescence (intracellular calcium ion increase) in hypothalamus: peptide at final concentrations of 1 μmol/L and 5 μmol/L. How it is done:
(§1) A hypothalamus, pituitary gland, kidney, heart, blood vessel, or a portion of brain tissue is collected from transgenic mice systemically expressing apoaequorin (WO02/010371) produced by introducing an apoaequorin gene expression vector into fertilized eggs. The obtained hypothalamus, pituitary gland, kidney, heart, blood vessel, or brain tissue is cut finely into pieces, suspended in a medium containing coelenterazine, and then incubated to incorporate coelenterazine into the cells to form aequorin (a complex of apoaequorin and coelenterazine). Since aequorin luminesces upon binding to intracellular calcium ions, the relative luminescence level in cells before and after addition of a medium containing the peptide or a pharmaceutically acceptable salt thereof is measured in a luminometer every second over time and is used as an indicator of intracellular calcium ion concentration. Increase in the relative luminescence level due to addition of the peptide or pharmaceutically acceptable salt thereof confirms that the peptide or pharmaceutically acceptable salt thereof has the activity to increase intracellular calcium ion concentration.
(§2) Whether Peptides 1 to 8 synthesized in Example 2 have the activity of increasing intracellular calcium ion concentration was investigated using the organs of transgenic mice introduced with the apoaequorin gene and systemically expressing apoaequorin (hereinafter referred to as apoaequorin-expressing mice). In apoaequorin-expressing mouse cells, light is emitted when apoaequorin binds to a calcium ion in the presence of the luminescent substrate coelenterazine and thus the intracellular calcium ion concentration can be monitored. Patent Document (WO02/010371) discloses the method for producing apoaequorin-expressing mice, method for evaluating biologically active substances that use biological samples derived from the mice, and experimental results of evaluating biologically active peptides using the mouse organs as shown below. […] Therefore, apoaequorin-expressing mice can be used in the evaluation of the physiological activities of novel peptides.
(§3) Apoaequorin-expressing mice were produced according to the method disclosed in Reference Example 4 of Patent Document (WO02/010371). The apoaequorin-expressing mice were sacrificed, individual organs including thymus, hypothalamus, spleen, bone, aorta, heart, kidney, adrenal gland, pancreas, pituitary gland, uterus, medulla oblongata, and spinal cord were removed; and each of the organs was cut into small cubes of approximately 1 to 2 mm^3. Next, in 5-mL tubes (Rohren-Tubes; manufactured by Sarstedt, No. 55.476), three portions of each of the prepared organs were added to 50 μL of a 10 μmol/L solution of coelenterazine (manufactured by Molecular Probes) dissolved in RPMI 1640 medium, and these were cultured at 37° C. for three hours. After culturing, RPMI 1640 medium was added, and then Peptides 1 to 5 dissolved in RPMI 1640 medium were added 25 seconds after the addition of RPMI 1640 until each peptide had final concentrations of 1 μmol/L and of 5 μmol/L, and the relative luminescence levels were measured every second immediately after the addition of RPMI 1640 medium by using a luminometer (AutoLumat LB953, manufactured by Berthold).

The test system of assay [2] is pituitary cells of the apoaequorin-expressing mice. As to the kind of experiment: Intracellular calcium ion increase (aequorin luminescence), pituitary gland. Format: cell-based, mouse. Conditions: for increase of intracellular calcium concentration in pituitary cells (RLU per second): added at 25 seconds; for luminescence (intracellular calcium ion increase) in pituitary gland: peptide at final concentrations of 1 μmol/L and 5 μmol/L. How it is done:
as §1, §2, §3
A general note: Calcium flux is commonly read through the fluorescence of an indicator in the cells.

In assay [3] the test system is medulla oblongata of apoaequorin-expressing mice. Kind of assay: Intracellular calcium ion increase (aequorin luminescence), medulla oblongata. Conditions: peptide at final concentrations of 1 μmol/L and 5 μmol/L. Format: cell-based, mouse. How it is done:
as §1, §2, §3

Assay [4] deals with cardiac cells of the apoaequorin-expressing mice. Kind of assay: Intracellular calcium ion increase (aequorin luminescence), heart. Conditions: for increase of intracellular calcium concentration in cardiac cells (RLU per second): 1 μmol/L peptide, added at 25 seconds; for luminescence (intracellular calcium ion increase) in heart: peptide at final concentrations of 1 μmol/L and 5 μmol/L. Format: cell-based, mouse. How it is done: as §1, §2, §3

Assay [5] has as its system pancreatic cells of the apoaequorin-expressing mice. As to the kind of experiment: Intracellular calcium ion increase (aequorin luminescence), pancreas. The conditions noted are these: for luminescence (intracellular calcium ion increase) in pancreas: peptide at final concentrations of 1 μmol/L and 5 μmol/L. Format: cell-based, mouse. How it is done:
as §1
Whether Peptides 1 to 8 synthesized in Example 2 have the activity of increasing intracellular calcium ion concentration was investigated using the organs of transgenic mice introduced with the apoaequorin gene and systemically expressing apoaequorin (hereinafter referred to as apoaequorin-expressing mice). In apoaequorin-expressing mouse cells, light is emitted when apoaequorin binds to a calcium ion in the presence of the luminescent substrate coelenterazine and thus the intracellular calcium ion concentration can be monitored. Patent Document (WO02/010371) discloses the method for producing apoaequorin-expressing mice, method for evaluating biologically active substances that use biological samples derived from the mice, and experimental results of evaluating biologically active peptides using the mouse organs as shown below. […]

A further assay relates to male rats. The conditions noted are these: direct administration to the PVN of male rats; Non-patent Document 7; cited from earlier work.
Assay [6] concerns thymus of apoaequorin-expressing mice. Kind of assay: Intracellular calcium ion increase (aequorin luminescence), thymus. The class given is cell-based, mouse. Conditions: peptide at final concentrations of 1 μmol/L and 5 μmol/L. How it is done: as §1, §2
(§4) Apoaequorin-expressing mice were produced according to the method disclosed in Reference Example 4 of Patent Document (WO02/010371). […] After culturing, RPMI 1640 medium was added, and then Peptides 1 to 5 dissolved in RPMI 1640 medium were added 25 seconds after the addition of RPMI 1640 until each peptide had final concentrations of 1 μmol/L and of 5 μmol/L, and the relative luminescence levels were measured every second immediately after the addition of RPMI 1640 medium by using a luminometer (AutoLumat LB953, manufactured by Berthold).

Assay [7] concerns kidney cells of the apoaequorin-expressing mice. Kind of assay: Intracellular calcium ion increase (aequorin luminescence), kidney. Format: cell-based, mouse. How it is done:
as §1, §2, §3

The subject of assay [8] is spleen of apoaequorin-expressing mice. Kind of assay: Intracellular calcium ion increase (aequorin luminescence), spleen. The class given is cell-based, mouse. Conditions: peptide at final concentrations of 1 μmol/L and 5 μmol/L. How it is done: as §1, §2, §4
In assay [9] the test system is aortic cells of the apoaequorin-expressing mice. As to the kind of experiment: Intracellular calcium ion increase (aequorin luminescence), aorta. The class given is cell-based, mouse. How it is done: as §1, §2, §4
Where [10] appears, read: 1 μmol/L peptide, added at 25 seconds.
[11] abbreviates: peptide at final concentrations of 1 μmol/L and 5 μmol/L.

Consider “Peptide 2: amino acid sequence at position 195 to 206 in human VGF (VNLESPGPERVW; synthetic Peptide 2, VGF-related peptide, human VGF positions 195-206)”, for which, in assay [1], the “increase of intracellular calcium concentration in hypothalamic cells (RLU per second)” value is “increase of intracellular calcium concentration” and the “luminescence (intracellular calcium ion increase) in hypothalamus” value is “luminescence was observed”. Further, the “increase of intracellular calcium concentration in pituitary cells (RLU per second)” value in assay [2] (1 μmol/L peptide) is recorded as “increase of intracellular calcium concentration”. The “luminescence (intracellular calcium ion increase) in pituitary gland” value in [2] is given as “luminescence was observed”. In assay [3], the “luminescence (intracellular calcium ion increase) in medulla oblongata” value is listed as “luminescence was observed”. In assay [4], the “increase of intracellular calcium concentration in cardiac cells (RLU per second)” value is recorded as “increase of intracellular calcium concentration” and the “luminescence (intracellular calcium ion increase) in heart” value was “luminescence was observed”.

In the case of “Peptide 4: amino acid sequence at position 533 to 543 in human VGF (EEDEVYPPGPY; synthetic Peptide 4, VGF-related peptide, human VGF positions 533-543)”, in [1], the “increase of intracellular calcium concentration in hypothalamic cells (RLU per second)” value is recorded as “increase of intracellular calcium concentration” and the “luminescence (intracellular calcium ion increase) in hypothalamus” value was “luminescence was observed”. Moreover, the “increase of intracellular calcium concentration in pituitary cells (RLU per second)” value in [2] (1 μmol/L peptide) was “increase of intracellular calcium concentration”. The “luminescence (intracellular calcium ion increase) in pituitary gland” value in assay [2] was “luminescence was observed”. The “luminescence (intracellular calcium ion increase) in pancreas” value in assay [5] is “luminescence was observed”.

Turning to “Peptide 10: amino acid sequence at position 485 to 503 in human VGF (NAPPEPVPPPRAAPAPTHV; synthetic Peptide 10, VGF-related peptide, human VGF positions 485-503)”, in assay [1], the “increase of intracellular calcium concentration in hypothalamic cells (RLU per second)” value was “increase of intracellular calcium concentration” and the “luminescence (intracellular calcium ion increase) in hypothalamus” value is listed as “luminescence was observed”. The “increase of intracellular calcium concentration in pituitary cells (RLU per second)” value in assay [2] (1 μmol/L peptide) was “increase of intracellular calcium concentration”. Also, the “luminescence (intracellular calcium ion increase) in pituitary gland” value in [2] is “luminescence was observed”. In assay [5] (5 μmol/L peptide, added at 25 seconds), the “increase of intracellular calcium concentration in pancreatic cells (RLU per second)” value is given as “increase of intracellular calcium concentration”. Besides, the “luminescence (intracellular calcium ion increase) in pancreas” value in [5] was “luminescence was observed”.

Consider “rat VGF (577-617): known partial peptide, positions 577-617 of rat VGF (HHPDLEAQARRAQEEADAEERRLQEQEELENYIEHVLLHRP; UniProt P20156 577-617, looked up, fragment)”, for which, in the assay with male rats, the erection inducing activity entry was “showed an erection inducing activity”.

Consider “Peptide 3: amino acid sequence at position 485 to 495 in human VGF (NAPPEPVPPPR; synthetic Peptide 3, VGF-related peptide, human VGF positions 485-495)”, for which, in assay [1], the “increase of intracellular calcium concentration in hypothalamic cells (RLU per second)” value was “increase of intracellular calcium concentration” and the “luminescence (intracellular calcium ion increase) in hypothalamus” value is recorded as “luminescence was observed”. Besides, the “increase of intracellular calcium concentration in pituitary cells (RLU per second)” value in assay [2] (5 μmol/L peptide) is listed as “increase of intracellular calcium concentration”. Further, in assay [2], the “luminescence (intracellular calcium ion increase) in pituitary gland” value is “luminescence was observed”. Moreover, in [6], the “luminescence (intracellular calcium ion increase) in thymus” value is “luminescence was observed”. For the same substance, the “luminescence (intracellular calcium ion increase) in medulla oblongata” value in assay [3] is on record as “luminescence was observed”. Besides, the “increase of intracellular calcium concentration in kidney cells (RLU per second)” value in assay [7] (setting [10]) was “increase of intracellular calcium concentration”. In [7] (setting [11]), the “luminescence (intracellular calcium ion increase) in kidney” value is given as “luminescence was observed”.

For the substance “Peptide 7: amino acid sequence at position 400 to 417 in human VGF (QNALLFAEEEDGEAGAED; synthetic Peptide 7, VGF-related peptide, human VGF positions 400-417)”, in assay [1], the “increase of intracellular calcium concentration in hypothalamic cells (RLU per second)” value was “increase of intracellular calcium concentration” and the “luminescence (intracellular calcium ion increase) in hypothalamus” value is given as “luminescence was observed”. Moreover, in [2] (1 μmol/L peptide), the “increase of intracellular calcium concentration in pituitary cells (RLU per second)” value is “increase of intracellular calcium concentration”. Also, the “luminescence (intracellular calcium ion increase) in pituitary gland” value in [2] is reported as “luminescence was observed”. For the same substance, in assay [4], the “increase of intracellular calcium concentration in cardiac cells (RLU per second)” value was “increase of intracellular calcium concentration” and the “luminescence (intracellular calcium ion increase) in heart” value is given as “luminescence was observed”. In assay [8], the “luminescence (intracellular calcium ion increase) in spleen” value is “luminescence was observed”. Besides, the “increase of intracellular calcium concentration in aortic cells (RLU per second)” value in assay [9] (setting [10]) is recorded as “increase of intracellular calcium concentration”. The “luminescence (intracellular calcium ion increase) in aorta” value in assay [9] (setting [11]) is “luminescence was observed”.

Take “rat VGF (599-617): known partial peptide, positions 599-617 of rat VGF (LQEQEELENYIEHVLLHRP; UniProt P20156 599-617, looked up, fragment)”: in the assay on male rats, the erection inducing activity entry is “showed an erection inducing activity”.

For “rat VGF (588-617): known partial peptide, positions 588-617 of rat VGF (AQEEADAEERRLQEQEELENYIEHVLLHRP; UniProt P20156 588-617, looked up, fragment)”, the erection inducing activity entry in the assay with male rats is reported as “showed an erection inducing activity”.
